What was measured:
[1] = tested on: Escherichia coli; experiment: Antimicrobial activity against Escherichia coli U21 isolate by disk diffusion test
[2] = tested on: Escherichia coli; experiment: Antimicrobial activity against Escherichia coli U93 isolate by disk diffusion test

MIC [1]: > 32 µg/mL
MIC [2]: > 32 µg/mL
SMILES: COc1cc(Cc2cnc(N)nc2N)cc(OC)c1OC [TRIMETHOPRIM]

Reference: ChEMBL document CHEMBL1143849, “Two new dfr genes in trimethoprim-resistant integron-negative Escherichia coli isolates” (2007)
